Results published in the supplement of paper PMC10307832.

Columns and labels:
Experiment in all cases: relative viability (nuclei count vs DMSO), 5 days (fraction); higher = more cells survive
[1] = compound: CCn1c(-c2nonc2N)nc2c(C#CC(C)(C)O)ncc(OC[C@H]3CCCNC3)c21 + N=C(N)NC(=N)NCCc1ccccc1 [Phenformin] (partner 250 µM)
Summary of the method: (§1)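 Lung cancer cell lines, seeded in 1536-well plates, were treated the following day by pin tool with a single drug or with five library-drug doses (not always all listed) in √10 steps on top of a fixed anchor-drug dose. Cells were fixed and nuclei stained in one step after 5 days, and nuclei were counted. Relative viability is the nuclei count for treated wells divided by that for vehicle wells, reported as medians of duplicate plates.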

[2] = compound: CCn1c(-c2nonc2N)nc2c(C#CC(C)(C)O)ncc(OC[C@H]3CCCNC3)c21 + Nc1nc2[nH]cc(CCc3ccc(C(=O)N[C@@H](CCC(=O)O)C(=O)O)cc3)c2c(=O)[nH]1 [Pemetrexed] (partner 0.2 µM)
Summary of the method: as §1

BAM7 + Pictilisib = compound: CCOC1=CC=CC=C1N=NC2=C(NN(C2=O)C3=NC(=CS3)C4=CC=CC=C4)C [BAM7] + CS(=O)(=O)N1CCN(Cc2cc3nc(-c4cccc5[nH]ncc45)nc(N4CCOCC4)c3s2)CC1 [Pictilisib] (partner 1 µM)
Summary of the method: as §1

[3] = compound: CCn1c(-c2nonc2N)nc2c(C#CC(C)(C)O)ncc(OC[C@H]3CCCNC3)c21 + COc1cc2c(Oc3ccc(NC(=O)C4(C(=O)Nc5ccc(F)cc5)CC4)cc3F)ccnc2cc1OCCCN1CCOCC1 [Foretinib] (partner 0.25 µM)
Summary of the method: as §1

Q: Which relative viability ([1]; first compound 0.01 µM) does the source give for UMC-11 here?
A: 0.35

Q: What about the relative viability ([1]; first compound 0.03162 µM) of the same cell line?
A: 0.351

Q: And the relative viability ([1]; first compound 0.1 µM)?
A: 0.31

Q: What about the relative viability ([1]; first compound 0.3162 µM) of the same cell line?
A: 0.32

Q: What about the relative viability ([1]; first compound 1 µM) of the same cell line?
A: 0.301

Q: And the relative viability ([2]; first compound 0.01 µM)?
A: 0.804

Q: And the relative viability ([2]; first compound 0.03162 µM)?
A: 0.758

Q: What about the relative viability ([2]; first compound 0.1 µM) of the same cell line?
A: 0.749

Q: What about the relative viability ([2]; first compound 0.3162 µM) of the same cell line?
A: 0.722

Q: And the relative viability ([2]; first compound 1 µM)?
A: 0.758

Q: What about the relative viability (BAM7 + Pictilisib; first compound 0.5 µM) of the same cell line?
A: 0.856

Q: What about the relative viability (BAM7 + Pictilisib; first compound 5 µM) of the same cell line?
A: 0.897

Q: What about the relative viability (BAM7 + Pictilisib; first compound 15.81 µM) of the same cell line?
A: 0.85

Q: What about the relative viability (BAM7 + Pictilisib; first compound 50 µM) of the same cell line?
A: 0.892

Q: What about the relative viability ([3]; first compound 0.01 µM) of the same cell line?
A: 1.01

Q: And the relative viability ([3]; first compound 0.03162 µM)?
A: 1.06

Q: And the relative viability ([3]; first compound 0.1 µM)?
A: 1.01

Q: And the relative viability ([3]; first compound 0.3162 µM)?
A: 0.931

Q: And the relative viability ([3]; first compound 1 µM)?
A: 1.04
